The values that follow come from ChEMBL document CHEMBL1143987, “Structure and estrogenic activity of new lignans from Iryanthera lancifolia” (2008).

Activity calls are given as the source filed them. No cut-off for these calls is given here.

What all share (format): functional
Assay [1] relates to MCF7. Nature of the assay: Proliferative effect in human MCF7 BUS cells assessed as increase in cell number relative to 17-beta estradiol. More on the design: concentration or dose not given beside the values.
Assay [2] concerns MCF7. The assay can be described thus: Estrogenic potency in human MCF7 BUS cells assessed as drug level inducing maximal cell proliferation.
Assay [3] relates to MCF7. The assay can be described thus: Proliferative effect in human MCF7 BUS cells assessed as ratio of increase in cell number in drug treated to control.
Assay [4] has as its system MCF7. The assay can be described thus: Proliferative potency in human MCF7 BUS cells assessed as induction of maximal cell proliferation relative to 17-beta estradiol.

Take `C[C@H](Cc1ccc2c(c1)OCO2)[C@H](C)C(=O)c1ccc(O)cc1`: the Activity with MCF7 [1] is reported as 50.1%; with MCF7 [4], 0.01%. In the assay with MCF7 [2], the MED was determined as 10 µM. In the assay with MCF7 [3], the Ratio was 4.51.
As for `C[C@@H]([C@H](C)Cc1ccc2c(c1)OCO2)[C@H](O)c1ccc2c(c1)OCO2`, the Activity with MCF7 [1] and in the assay with MCF7 [4] was 0% each time. Moreover, the result with MCF7 [3] was inactive.
In the case of `COc1ccc([C@H]2Oc3c(OC)cc(C=O)cc3[C@@H]2C)cc1O` [PERSEAL F], the Activity in the assay with MCF7 [1] and with MCF7 [4] was 0% each time. The outcome in the assay on MCF7 [3] was inactive.
As to `C/C=C/c1cc(OC)c2c(c1)[C@@H](C)[C@H](c1ccc(O)c(OC)c1)O2` [LICARINE A], the Activity in the assay on MCF7 [1] was 26.4%; with MCF7 [4] it was 0.01%. Also, the MED in the assay with MCF7 [2] was 10 µM. Moreover, the Ratio in the assay on MCF7 [3] turned out to be 2.8.
With `COc1ccc(CCC(=O)c2c(O)cc(O)cc2OC)cc1`, the Activity is given as 80.7% in the assay with MCF7 [1] and 0.01% with MCF7 [4]. The MED in the assay on MCF7 [2] stood at 10 µM. For the same compound, the Ratio in the assay on MCF7 [3] was 6.6.
As for `C/C(=C/c1ccc(O)cc1)C(C)Cc1ccc(O)cc1` (stereo unspecified), the Activity stood at 73.7% with MCF7 [1] and 0.01% with MCF7 [4]. For the same compound, the MED in the assay with MCF7 [2] stood at 10 µM. For the same compound, in the assay with MCF7 [3], the Ratio is reported as 6.2.
For the compound `C[C@@H]([C@H](C)Cc1ccc2c(c1)OCO2)[C@@H](O)c1ccc2c(c1)OCO2` [OLEIFERIN C], the Activity was 47.8% in the assay on MCF7 [1] and 0.01% in the assay with MCF7 [4]. For the same compound, the MED with MCF7 [2] was determined as 10 µM. Besides, in the assay with MCF7 [3], the Ratio amounted to 4.4.
For `COc1cc(O)cc(O)c1C(=O)CCc1ccc2c(c1)OCO2`, in that order: 22.1%, 0.01%, 10 µM and 2.5.
Regarding `C/C=C/c1cc(OC)c2c(c1)[C@@H](C)[C@H](c1ccc3c(c1)OCO3)O2` [LICARINE B], the Activity in the assay on MCF7 [1] and with MCF7 [4] was 0% throughout. Also, in the assay with MCF7 [3], the outcome was inactive.
Consider `COc1cc(C(=O)[C@@H](C)[C@H](C)Cc2ccc3c(c2)OCO3)ccc1O` [OLEIFERIN D], for which the results for the Activity in the assay on MCF7 [1] and in the assay with MCF7 [4] were 42.8% and 0.01%, respectively. Also, the MED in the assay on MCF7 [2] was determined as 10 µM. Moreover, the Ratio in the assay on MCF7 [3] was 4.
Turning to `CCO[C@@H](c1ccc2c(c1)OCO2)[C@@H](C)[C@H](C)Cc1ccc2c(c1)OCO2`, the values for the Activity in the assay on MCF7 [1] and with MCF7 [4] were 84% and 0.01%, respectively. Besides, the MED with MCF7 [2] amounted to 10 µM. In the assay on MCF7 [3], the Ratio is listed as 6.9.
For `C[C@@H]1[C@@H](c2ccc3c(c2)OCO3)c2cc3c(cc2C[C@H]1C)OCO3` [CAGAYANINE], in that order: 17.9%, 0.01%, 10 µM and 2.2.
For `Oc1ccc2c(c1)O[C@H](c1ccc3c(c1)OCO3)CC2`, in that order: 67.1%, 0.01%, 10 µM and 5.7.
For `C[C@@H]1[C@@H](c2ccc(O)cc2)c2cc(O)ccc2C[C@H]1C`, in that order: 77.8%, 0.01%, 10 µM and 6.4.
As to `C[C@H](Cc1ccc(O)cc1)[C@H](C)Cc1ccc2c(c1)OCO2`, the Activity in the assay on MCF7 [1] was found to be 68.7%; with MCF7 [4], 0.01%. The MED in the assay with MCF7 [2] came out at 10 µM. The Ratio with MCF7 [3] is 5.8.
For `C[C@H](Cc1ccc2c(c1)OCO2)[C@@H](C)Cc1ccc2c(c1)OCO2` [MACHILIN A], in that order: 13.5%, 0.01%, 10 µM and 1.9.
With `COc1cc(C[C@H](C)[C@H](C)Cc2ccc3c(c2)OCO3)ccc1O` [AUSTROBAILIGNAN 6], the Activity with MCF7 [1] and with MCF7 [4] was 0% throughout. Further, the result in the assay with MCF7 [3] was inactive.
Turning to `C[C@]12CC[C@@H]3c4ccc(O)cc4CC[C@H]3[C@@H]1CC[C@@H]2O` [ESTRADIOL], the MED in the assay with MCF7 [2] turned out to be 0.001 µM. The Ratio with MCF7 [3] is recorded as 8.
